Test results: the NIST ThermoML archive (doi:10.1016/j.jct.2016.10.021)

How the values were obtained:
[1] = wn = mass fraction of the nth substance listed; details: 303.15 K; for surface tension liquid-gas: Pendant drop shape; for viscosity / mass density: 100 kPa, Liquid; for viscosity: Concentric cylinders viscometry; for mass density: Vibrating tube method
[2] = for surface tension liquid-gas: Pendant drop shape; for viscosity / mass density: 101.33 kPa, Liquid; for viscosity: Concentric cylinders viscometry; for mass density: Vibrating tube method

C1CCC2=NCCC[NH+]2CC1.CS(=O)(=O)[O-] [1,8-diazabicyclo[5.4.0]undec-7-enium methanesulfonate] + O
[1]
Details	mass density [kg/m3]	surface tension liquid-gas [mN/m]	viscosity [mPa·s]
w2 = 0.001054	1219.8	41.35	1177
w2 = 0.001987	1219.37	41.43	1176.8
w2 = 0.003524	1218.75	41.56	1176.5
w2 = 0.004663	1218.3	41.69	1176.3
w2 = 0.005967	1217.81	41.78	1176.1

C1CCC2=[NH+]CCCN2CC1.CC(=O)[O-] [2,3,4,6,7,8,9,10-octahydropyrimido[1,2-a]azepinium acetate]
[2]
Details	mass density [kg/m3]	surface tension liquid-gas [mN/m]	viscosity [mPa·s]
293.15 K	1076	36.88	164.74
303.15 K	1069.1	35.94	84.73
313.15 K	1062.3	34.6	48.34
323.15 K	1055.6	33.47	30.38
333.15 K	1048.7	32.38	20.36
343.15 K	1041.8	31.46	14.39
353.15 K	1034.9	30.63	10.59
363.15 K	1028	–	8.052

C1CCC2=[NH+]CCCN2CC1.O=S(=O)([O-])C(F)(F)F
[2]
Details	mass density [kg/m3]	surface tension liquid-gas [mN/m]	viscosity [mPa·s]
293.15 K	1361	30.39	1113.1
303.15 K	1352.7	29.8	524.23
313.15 K	1344.5	29.27	276
323.15 K	1336.7	28.83	158.89
333.15 K	1329	28.31	98.25
343.15 K	1321.2	27.71	64.4
353.15 K	1313.5	27.15	44.29
363.15 K	1305.9	–	31.75

C1CCC2=NCCC[NH+]2CC1.CS(=O)(=O)[O-] [1,8-diazabicyclo[5.4.0]undec-7-enium methanesulfonate]
[2]
Details	mass density [kg/m3]	surface tension liquid-gas [mN/m]	viscosity [mPa·s]
293.15 K	1226.6	41.84	3310.1
303.15 K	1219.8	41.35	1177
313.15 K	1212.9	40.49	497.53
323.15 K	1206.1	39.58	241.49
333.15 K	1199.5	38.79	131.6
343.15 K	1193	38.23	78.46
353.15 K	1186.5	37.54	50.26
363.15 K	1180.2	–	34.12

C1CCC2=[NH+]CCCN2CC1.CC(=O)[O-] [2,3,4,6,7,8,9,10-octahydropyrimido[1,2-a]azepinium acetate] + O
[1]
Details	mass density [kg/m3]	surface tension liquid-gas [mN/m]	viscosity [mPa·s]
w2 = 0.001127	1069.1	35.94	84.73
w2 = 0.002156	1068.4	35.99	84.7
w2 = 0.003932	1066.9	36.09	84.66
w2 = 0.005106	1065.9	36.15	84.62
w2 = 0.006373	1065	36.23	84.59

C1CCC2=NCCC[NH+]2CC1.O=C([O-])C(F)(F)F [1,8-diazabicyclo[5.4.0]undec-7-enium trifluoroacetate] + O
[1]
Details	mass density [kg/m3]	surface tension liquid-gas [mN/m]	viscosity [mPa·s]
w2 = 0.001118	1256.6	31.98	493.76
w2 = 0.002196	1256.2	32.01	493.59
w2 = 0.003948	1255.7	32.06	493.33
w2 = 0.005067	1255.2	32.09	493.17
w2 = 0.006935	1254.6	32.14	492.85

C1CCC2=NCCC[NH+]2CC1.O=C([O-])C(F)(F)F [1,8-diazabicyclo[5.4.0]undec-7-enium trifluoroacetate]
[2]
Details	mass density [kg/m3]	surface tension liquid-gas [mN/m]	viscosity [mPa·s]
293.15 K	1264.6	32.47	1193.2
303.15 K	1256.6	31.98	493.76
313.15 K	1248.9	31.52	236.97
323.15 K	1241.4	31.05	127.92
333.15 K	1234	30.65	75.72
343.15 K	1226.6	30.15	48.46
353.15 K	1219.2	29.74	32.94
363.15 K	1211.9	–	23.43

C1CCC2=[NH+]CCCN2CC1.O=S(=O)([O-])C(F)(F)F + O
[1]
Details	mass density [kg/m3]	surface tension liquid-gas [mN/m]	viscosity [mPa·s]
w2 = 0.001106	1352.7	29.8	524.23
w2 = 0.002067	1352.2	29.74	524.18
w2 = 0.003286	1351.6	29.66	524.11
w2 = 0.004194	1351.1	29.6	524.06
w2 = 0.005671	1350.5	29.51	523.99
